In test [1] the test system is KB. Description: Antiproliferative activity against human KB cells. It counts as functional, cell-based.
Test [2] has as its system DU-145. Description: Antiproliferative activity against human DU145 cells. It counts as functional, cell-based.
Test [3] has as its system A549. Description: Antiproliferative activity against human A549 cells. In kind it is functional, cell-based.
Test [4] is described as follows: Antiproliferative activity against human KBVIN cells. It counts as functional, cell-based.
The subject of test [5] is HeLa-GFP. In words: Inhibition of proteasome in human HeLa-GFP cells at 10 ug/ml.
Test [6] can be described thus: Inhibition of chymotrypsin-like activity of human 20s proteasome.
For test [7], the system named is A549. In words: Antiproliferative activity against human A549 cells at 10 ug/ml. It counts as functional, cell-based.
Test [8] relates to KB. In words: Antiproliferative activity against human KB cells at 10 ug/ml. In kind it is functional, cell-based.
Test [9] relates to KBVIN. In words: Antiproliferative activity against human KBVIN cells at 10 ug/ml. In kind it is functional, cell-based.
Test [10] concerns DU-145. Description: Antiproliferative activity against human DU145 cells at 10 ug/ml. In kind it is functional, cell-based.

Active and inactive are the calls of the source. The calls are words filed in the database; no cut-off is given here.

Drawing on ChEMBL document CHEMBL2016438, “Design and synthesis of naphthoquinone derivatives as antiproliferative agents and 20S proteasome inhibitors” (Bioorg Med Chem Lett, 2012), this text covers IC50 and inhibition for 16 molecules.

In the case of `O=C1C(Cl)=C(Nc2ccc(S(=O)(=O)Nc3ccccn3)cc2)C(=O)c2ccccc21`, the IC50 in test [1] came to 9.57 µM; in test [2], 10.8 µM; in test [3], 12.2 µM; in test [4], 11.7 µM; in test [6], 18.6 µM. In addition, in test [5], the inhibition result is “inactive”.

As to `COc1ccc(C(=O)Nc2ccc(NC3=C(Cl)C(=O)c4ccccc4C3=O)cc2)cc1`, the inhibition result in test [7], in [8], in [9] and in test [10] was “inactive” throughout.

As to `CC(=O)N[C@@H](CSC(=O)[C@]1([C@@H](O)C(C)C)NC(=O)[C@H](C)[C@@H]1O)C(=O)O` [LACTACYSTIN], the IC50 in test [6] was found to be 10.1 µM.

In the case of `O=C1C(Cl)=C(Nc2ccc(C(=O)N3CCOCC3)cc2)C(=O)c2ccccc21`, the IC50 in [1] came out at 14 µM; in [2] it was 13.7 µM; in test [3] it was 12.5 µM; in [4] it was 14.5 µM. In addition, the inhibition result in [5] was “inactive”.

In the case of `COc1ccc(CC(=O)Nc2ccc(NC3=C(Cl)C(=O)c4ccccc4C3=O)cc2)cc1`, the inhibition entry in test [7], in test [8], in test [9] and in test [10] was “inactive” each time.

Consider `COc1cc(NC(=O)c2ccc(NC3=C(Cl)C(=O)c4ccccc4C3=O)cc2)cc(OC)c1`, for which the IC50 stood at 10.4 µM in test [1], 10.5 µM in test [2], 9.64 µM in test [3] and 11.3 µM in test [4]. For the same molecule, the inhibition result in [5] is “inactive”.

`O=C1C(Cl)=C(NCCc2cccs2)C(=O)c2ccccc21`: the inhibition entry in [7], in test [8], in [9] and in test [10] was “inactive” throughout.

Regarding `O=C1C(Cl)=C(NCCCN2CCCC2=O)C(=O)c2ccccc21`, the IC50 turned out to be 16.2 µM in test [1], 18.1 µM in [2], 20.4 µM in [3] and 19.1 µM in test [4]. Besides, the inhibition entry in test [5] is “inactive”.

Consider `O=C1C(Cl)=C(Nc2ccc([N+](=O)[O-])cc2)C(=O)c2ccccc21`, for which the half-inhibitory concentration (IC50) in test [1] worked out at 16.6 µM; in test [2], 18.3 µM; in [3], 23.2 µM; in test [4], 18.3 µM; in test [6], 3.65 µM. Besides, in test [5], the inhibition entry is “Active”.

On to `O=C1C(Cl)=C(Nc2ccc(N3CCOCC3)cc2)C(=O)c2ccccc21`, for which the IC50 in [1] was 12.9 µM; in [2], 15.8 µM; in [3], 18.8 µM; in test [4], 14.2 µM. For the same molecule, in test [5], the inhibition entry was “inactive”.

`O=C(Nc1ccccn1)c1ccc(NC2=C(Cl)C(=O)c3ccccc3C2=O)cc1`: the inhibition result in [7], in test [8], in test [9] and in [10] was “inactive” each time.

Turning to `O=C1C(Cl)=C(NCCN2CCOCC2)C(=O)c2ccccc21`, the inhibition entry in test [7], in test [8], in [9] and in [10] was “inactive” in each case.

As for `O=C(NCCc1ccccc1)c1ccc(NC2=C(Cl)C(=O)c3ccccc3C2=O)cc1`, the inhibition result in test [7], in test [8], in test [9] and in [10] was “inactive” throughout.

For the molecule `O=C1C(Cl)=C(Nc2ccc(Oc3ccccc3)cc2)C(=O)c2ccccc21`, the IC50 stood at 8.12 µM in [1], 4.55 µM in test [2], 2.9 µM in test [3] and 1.3 µM in [4]. Moreover, the inhibition entry in [5] was “inactive”.

Consider `O=C(Nc1ccc(NC2=C(Cl)C(=O)c3ccccc3C2=O)cc1)c1ccccn1`, for which the inhibition result in test [7], in test [8], in [9] and in test [10] was “inactive” in each case.

With `O=C1C(Cl)=C(Nc2ccc3c(c2)OCO3)C(=O)c2ccccc21`, the inhibition entry in test [7], in test [8], in test [9] and in test [10] was “inactive” in each case.
